Laboratory results from US9381203B2, “Combination therapies for treatment of laminopathies, cellular aging, and atherosclerosis” (priority 2013, dated 2016).

Tested on: HGPS patients
Assay: Kaplan-Meier survival analysis of treated vs. untreated HGPS patients
Type: in vivo, human
Description: Survival data of untreated subjects was collected from hospital case studies, newspaper articles, and other publicly available databases. “Untreated subjects” were defined as HGPS-diagnosed subjects who had no exposure to HGPS clinical treatment trial medications. In total, data from 155 subjects; including 100 deceased and 55 living, was used in the analysis, the cut-off date for which was Dec. 3, 2012.
“Treated subjects” were defined as all subjects who were enrolled in one or both of two HGPS farnesyltransferase inhibitor (FTI) clinical treatment trials to date, for any length of time. Treatment conditions for the initial, FTI-only, trial are described in Gordon et al., PNAS, 109:16666/16671, 2012. Treatment conditions for the three-drug combination of lonafarnib, pravastatin, and zoledronic acid, are described in Example 1. In total data from 43 subjects; including 4 deceased and 39 living, was included in the analysis.
Kaplan-Meier survival analyses were carried out using SAS statistical analysis software.

NC(=O)N1CCC(CC(=O)N2CCC([C@H]3c4ncc(Br)cc4CCc4cc(Cl)cc(Br)c43)CC2)CC1 [FTI, lonafarnib]
Mean years of survival, treated vs. untreated (all subject groupings of FIG. 5, FTI only or with pravastatin and zoledronic acid): significant increase in mean years of survival
Survival of treated vs. untreated patients (Kaplan-Meier) (entire sample, 43 treated (FTI only or with pravastatin and zoledronic acid) vs. 155 untreated, FIG. 1): significant survival benefit
